{"source": "patent US20220288037A1", "about": "“PRODRUGS AND FORMULATIONS THEREOF” (BOARD OF REGENTS OF THE UNIVERSITY OF NEBRASKA, priority 2019, published 2022)", "assay": "aqueous solubility of prodrug", "type": "physicochemical", "conditions": "prodrug compared with parent drug, FIG. 1B", "source_text": "FIGS. 1A-1D provide characterization of a prodrug of nitazoxanide ([…]) and a nanoformulation thereof (NM1NTZ). FIG. 1A provides a Fourier transform infrared (FT-IR) spectrum of […] showing absorption bands at 2915 cm^-1 and 2850 cm^-1, thereby confirming formation of the prodrug as well as the nuclear magnetic resonance spectroscopy of the compound. FIG. 1B provides a graph of the aqueous solubility of […]. […] FIG. 1C provides a graph of cell viability as evaluated by mitochondrial function in monocyte-derived macrophage (MDM) by a 3-(4,5-dimethylthiazol-2-yl)-2,5-diphenyltetrazolium bromide (MTT) assay. NM1NTZ exerted no adverse effects to cell viability at 400 μM of drug or less. FIG. 1D provides graphs showing the particle size, polydispersity index (PDI) and charge of the nanoformulations over time, thereby showing the stability of the nanoparticles.", "data": [{"smiles": "CCCCCCCCCCCCCCCCCC(=O)Oc1ccccc1C(=O)Nc1ncc([N+](=O)[O-])s1", "note": "[M1NTZ]", "values": [{"measurement": "aqueous solubility", "value": "decreased water solubility"}]}]}
